Measurements taken from patent US7115635B2, “Benzylpiperidine compound” (Mitsubishi Pharma Corporation, priority 2001, dated 2006).
Where a name gives a salt, the structure may show the parent alone.

Tests used:
human eosinophil = assay: Binding inhibitory activity between chemokine ([125I]-eotaxin) and human eosinophil; conditions: 50 pmol/L [125I]-eotaxin, human eosinophil 2x10^5, 25 C, 1 hr; read-out: IC50 (concentration necessary for decreasing the binding between [125I]-eotaxin and human eosinophil by 50%)
Description: Human eosinophil was separated from the anticoagulation treated peripheral blood of a healthy subject by CD16 negative selection method (e.g., J. Immunol. Methods, vol., 145, pp. 105–110, 1991). The separated eosinophil (2×10^5), 50 pmol/L [^125I]-eotaxin (2000 Ci/mmoL, manufactured by AmershamPharmacia Biotech) and a test compound were mixed in 0.1 mL of a binding buffer (50 mmol/L HEPES, 1 mmol/L CaCl2, 5 mmol/L MgCl2, 0.5% bovine serum albumin (BSA), 0.1% sodium azide, pH 7.6), and the mixture was incubated at 25° C. for 1 hr in a multiscreen plate (manufactured by Millipore Corporation). After the completion of the incubation, the reaction mixture in the multiscreen plate was filtered in vacuo and washed with 0.6 mL of a cold washing buffer (50 mmol/L HEPES, 1 mmol/L CaCl2, 5 mmol/L MgCl2, 0.5 mol/L NaCl, 0.1% sodium azide, pH 7.6), and the radioactivity on the filter was measured. […] The IC50 values (concentration of a test compound necessary for decreasing the binding between [^125 I]-eotaxin and human eosinophil by 50%) of some of the compounds of the present invention were as follows.

CCR3 = target: T1, CCR3 (Homo sapiens, UniProt P51677); assay: Effect on intracellular calcium concentration in eosinophil on stimulation with CCL11; format: cell-based; conditions: human peripheral blood eosinophil, agonist CCL11 0.3 nmol/L, compound 5 min before stimulation, Fura-2 AM; read-out: IC50 of the increase in the intracellular calcium concentration
T1 construct: Eosinophil separated from the peripheral blood of a healthy subject; endogenous in cells; host or cells: eosinophils from peripheral blood of a healthy subject
T1 sequence (P51677 1-355): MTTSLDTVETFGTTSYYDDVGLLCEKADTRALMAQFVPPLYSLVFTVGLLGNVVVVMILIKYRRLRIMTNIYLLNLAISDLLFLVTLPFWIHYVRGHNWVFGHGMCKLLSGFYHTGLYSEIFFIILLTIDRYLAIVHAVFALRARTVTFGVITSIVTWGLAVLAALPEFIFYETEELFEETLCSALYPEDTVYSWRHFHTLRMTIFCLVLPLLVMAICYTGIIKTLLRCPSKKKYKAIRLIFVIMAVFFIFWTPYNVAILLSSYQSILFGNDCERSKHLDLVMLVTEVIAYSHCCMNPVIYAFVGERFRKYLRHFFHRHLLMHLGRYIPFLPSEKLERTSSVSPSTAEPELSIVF
Description: The effect of the compound of the present invention on intracellular calcium in eosinophil in the peripheral blood of a healthy subject on stimulation with CCL11 was elavuated by the following method.
Eosinophil separated from the peripheral blood of a healthy subject was suspended in a buffer for measurement (10 mmol/L HEPES, and 0.5% bovine serum albumin-containing hanks' balanced salt solution), and the suspension was incubated in the presence of 5 μmol/L of Fura-2 AM (manufactured by Dojindo Laboratories) at 37° C. for 45 min. After the completion of incubation, the cells were washed three times with the buffer for measurement to remove Fura-2 AM not-incorporated into the cells.
The cell suspension was adjusted to the final concentration of 1×10^6 cells/mL with the buffer for measurement and preserved in a dark place until measurement. The intracellular calcium was measured using FDSS6000 manufactured by Hamamatsu Photonics K.K. That is, a cell suspension (0.1 mL) loaded with Fura-2 AM was placed in a 96 well plate for measurement, and the plate was set on FDSS6000. The fluorescence intensities due to excitation lights at wavelengths 340 nm and 380 nm were measured. The ratio of the fluorescence intensities corresponding to the excitation lights at these two wavelengths was determined to calculate the intracellular calcium concentration. […]

[1] = Measurement of blood (plasma) concentration; format: in vivo; conditions: female rat, LC/MS, administered orally and intravenously (route and dose for Cmax not stated)
Description: The compound of the present invention was administered orally and intravenously to female rat, and the plasma concentration of the compound was measured. That is, the test compound was weighed, dissolved or suspended in a medium, diluted to the objective concentration, and orally and intravenously administered. After the administration, the blood was drawn with time from the cervical vein with a heparin treated syringe. The blood was centrifuged, the plasma was separated, and the plasma was preserved at −20° C. until analysis. The concentration of the compound in plasma was measured using LC/MS. The results are shown in the following [Table 3].

| Structure (SMILES) | IC50 (human eosinophil) [nM] | IC50 (CCR3) [nM] | Cmax [1] [ng/mL] |
| --- | --- | --- | --- |
| Nc1ccc(-c2csc(SCC(=O)NC3CCN(Cc4ccc(Cl)c(Cl)c4)CC3)n2)cc1 [Example 6, [4-(4-aminophenyl)thiazol-2-ylthio]-N-[1-(3,4-dichlorobenzyl)piperidin-4-yl]acetamide] | 11 | – | – |
| N=C(N)Nc1nc(-c2ccc(CCCCC(=O)NC3CCN(Cc4ccc(Cl)c(Cl)c4)CC3)cc2)cs1 [Example 1, N-[1-(3,4-dichlorobenzyl)piperidin-4-yl]-5-[4-(2-guanidinothiazol-4-yl)phenyl]valeramide] | 6 | – | – |
| N=C(N)Nc1nc(-c2ccc(OCCCC(=O)NC3CCN(Cc4ccc(Cl)c(Cl)c4)CC3)cc2)cs1 [Example 9, N-[1-(3,4-dichlorobenzyl)piperidin-4-yl]-4-[4-(2-guanidinothiazol-4-yl)phenyloxy]butylamide ½ fumarate ¼ hydrate] | 4 | 6 | – |
| Nc1cccc(-c2csc(SCC(=O)NC3CCN(Cc4ccc(Cl)c(Cl)c4)CC3)n2)c1 [Example 35, [4-(3-aminophenyl)thiazol-2-ylthio]-N-[1-(3,4-dichlorobenzyl)piperidin-4-yl]acetamide] | – | – | 3120 |
